Patent US6423727B1, “Certain thiol inhibitors of endothelin-converting enzyme” (Novartis AG, priority 1998, dated 2002)
Ends that are not written are not given here.

Molecular target: rabbit antibodies that recognize specifically the carboxyl terminal tryptophan of ET-1
Assay: radioimmunoassay: displacement of [125I]ET-1 binding to the antibodies
Conditions: mean±SEM, n=3-5; 4° C. overnight
Description: Diluted samples (200 μL) obtained from the above enzyme assay are incubated at 4° C. overnight with 25 μL each of [^125I]ET-1 (10,000 cpm/tube) and 1:20,000-fold diluted rabbit antibodies that recognize specifically the carboxyl terminal tryptophan of ET-1. Goat anti-rabbit antibodies coupled to magnetic beads (70 μg) are then added to each tube, and the reaction mixture is further incubated for 30 min at room temperature. The beads are pelleted using a magnetic rack. The supernatant is decanted, and the radioactivity in the pellet is counted in a gamma counter. Total and nonspecific binding are measured in the absence of nonradioactive ET-1 and anti-ET antibodies, respectively.

Molecule	IC50 for displacement of [125I]ET-1 binding to the antibodies
ET-1: endothelin-1, formed from big ET-1 by ECE; nonradioactive competitor in the radioimmunoassay	21 ± 2 fmol
big ET-1: Human big ET-1, the ECE substrate used in the enzyme assay (CSCSSLMDKECVYFCHLDIIWVNTPEHVVPYGLGSPRS; ends and bridges not checked; cysteine pairing not given here; UniProt P05305 53-90, looked up)	260,000±66,000 fmol

Tested on: not given
Assay: not given
Conditions: not given

Molecule	melting point
CC(C)C[C@H](S)C(=O)NC1(C(=O)NC(Cc2ccc(-c3cncnc3)cc2)C(=O)O)CCCC1 (stereo in doubt) [2-{[1-(2-Mercapto-4-methyl-pentanoylamino)-cyclopentanecarbonyl]-amino}-3-(4-pyrimidin-5-yl-phenyl)-propionic acid]	192 to 195 °C
CC(C)[C@H](S)C(=O)NC1(C(=O)NC(Cc2ccc(-c3csc(CO)c3)cc2)C(=O)O)CCCC1 (stereo in doubt) [3-[4-(5-Hydroxymethyl-thiophen-3-yl)-phenyl]-2-{[1-(2-mercapto-3-methyl-butanoylamino)-cyclopentanecarbonyl]-amino}-propionic acid]	155 to 158 °C
CC(C)C[C@H](S)C(=O)NC1(C(=O)NC(Cc2ccc(-c3ccccc3O)cc2)C(=O)O)CCCC1 (stereo in doubt) [3-(2′-Hydroxy-biphenyl-4-yl)-2-{[1-(2-mercapto-4-methyl-pentanoylamino)-cyclopentanecarbonyl]-amino}-propionic acid]	215 to 217 °C
CC(C)[C@H](S)C(=O)NC1(C(=O)N[C@@H](Cc2cccc3c2CCCC3)C(=O)O)CCCC1 (stereo in doubt) [2-{[1-(2-Mercapto-3-methylbutanoylamino)-cyclopentanecarbonyl]-amino}-3-(5,6,7,8-tetrahydro-naphthalen-1-yl)-propionic acid]	158 to 164 °C
